Results published in ChEMBL document CHEMBL4433219, “EC18 as a Tool To Understand the Role of HCN4 Channels in Mediating Hyperpolarization-Activated Current in Tissues” (ACS Med Chem Lett, 2019).

Biological target: T1, Potassium/sodium hyperpolarization-activated cyclic nucleotide-gated channel 4 (Homo sapiens) (UniProt Q9Y3Q4)
T1 sequence (whole entry): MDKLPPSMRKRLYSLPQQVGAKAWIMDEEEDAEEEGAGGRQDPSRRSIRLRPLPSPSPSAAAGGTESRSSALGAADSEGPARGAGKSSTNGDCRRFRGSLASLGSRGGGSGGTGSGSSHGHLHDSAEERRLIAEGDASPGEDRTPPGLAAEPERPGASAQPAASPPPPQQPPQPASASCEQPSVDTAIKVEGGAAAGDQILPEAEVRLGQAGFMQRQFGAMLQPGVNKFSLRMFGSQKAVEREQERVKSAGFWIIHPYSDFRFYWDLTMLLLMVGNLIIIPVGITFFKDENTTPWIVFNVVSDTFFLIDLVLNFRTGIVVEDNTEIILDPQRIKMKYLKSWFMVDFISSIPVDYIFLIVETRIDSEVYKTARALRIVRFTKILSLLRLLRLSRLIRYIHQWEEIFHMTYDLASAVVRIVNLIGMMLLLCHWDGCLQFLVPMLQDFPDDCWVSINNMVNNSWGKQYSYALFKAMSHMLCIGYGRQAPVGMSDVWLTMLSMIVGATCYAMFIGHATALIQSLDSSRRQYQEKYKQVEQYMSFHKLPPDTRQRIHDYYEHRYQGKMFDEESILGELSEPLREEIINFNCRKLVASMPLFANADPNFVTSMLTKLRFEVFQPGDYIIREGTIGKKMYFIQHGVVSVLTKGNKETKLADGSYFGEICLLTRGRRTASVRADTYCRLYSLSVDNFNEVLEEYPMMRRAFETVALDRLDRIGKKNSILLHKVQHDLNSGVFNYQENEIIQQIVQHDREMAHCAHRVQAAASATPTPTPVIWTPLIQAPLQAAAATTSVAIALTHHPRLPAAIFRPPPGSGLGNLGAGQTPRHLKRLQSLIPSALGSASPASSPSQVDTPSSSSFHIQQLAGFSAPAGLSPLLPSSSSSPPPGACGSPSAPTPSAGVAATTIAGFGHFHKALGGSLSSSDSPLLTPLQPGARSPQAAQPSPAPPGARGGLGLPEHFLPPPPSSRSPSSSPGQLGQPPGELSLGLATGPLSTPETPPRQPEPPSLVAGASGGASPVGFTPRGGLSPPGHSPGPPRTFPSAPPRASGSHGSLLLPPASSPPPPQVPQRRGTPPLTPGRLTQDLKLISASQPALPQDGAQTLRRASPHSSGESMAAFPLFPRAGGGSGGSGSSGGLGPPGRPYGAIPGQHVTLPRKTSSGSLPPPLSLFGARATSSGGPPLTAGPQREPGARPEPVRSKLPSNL
Assay: Inhibition of human HCN4 expressed in HEK293 cells assessed as reduction in hyperpolarization activated current at 5 uM at holding potential of -80 mV by patch clamp assay relative to control
Type: cell-based

Compound | inhibition [%]
COc1ccc(CN(Cc2ccc(OC)c(OC)c2)[C@@H]2CCC[C@H](N3CCc4cc(OC)c(OC)cc4CC3=O)C2)cc1OC | 4
COc1ccc(OCCN(C)[C@@H]2CCC[C@H](N3CCc4cc(OC)c(OC)cc4CC3=O)C2)cc1OC | 48
COc1ccc(CCCN(C)[C@@H]2CCC[C@H](N3CCc4cc(OC)c(OC)cc4CC3=O)C2)cc1OC (relative stereo) | 47
COc1ccc(CN(C)[C@@H]2CCC[C@H](N3CCc4cc(OC)c(OC)cc4CC3=O)C2)cc1OC (relative stereo) | 21
COc1ccc(/C=C/CN(C)[C@@H]2CCC[C@H](N3CCc4cc(OC)c(OC)cc4CC3=O)C2)cc1OC (relative stereo) | 64
COc1ccc(CCN(C)C2CCCC(N3CCc4cc(OC)c(OC)cc4CC3=O)C2)cc1OC (single isomer, unassigned; (+)) | 46
COc1ccc(CCN(C)C2CCCC(N3CCc4cc(OC)c(OC)cc4CC3=O)C2)cc1OC (single isomer, unassigned; (-)) | 45
COc1ccc(CCN(C)[C@@H]2CC=C[C@H](N3C=Cc4cc(OC)c(OC)cc4CC3=O)C2)cc1OC | 30

Biological target: T1, Potassium/sodium hyperpolarization-activated cyclic nucleotide-gated channel 4 (Homo sapiens)
Assay: Inhibition of human HCN4 expressed in HEK293 cells assessed as reduction in hyperpolarization activated current at 10 uM at holding potential of -80 mV by patch clamp assay relative to control
Type: cell-based

Compound | inhibition [%]
COc1ccc(CCN(C)CCCN2CCc3cc(OC)c(OC)cc3CC2=O)cc1OC | 59
